Consider four compounds from ChEMBL document CHEMBL1165876, “Novel bis-phenanthridine derivatives with easily tunable linkers, study of their interactions with DNA and screening of antiproliferative activity” (Eur J Med Chem, 2010).

The nature of data set [1]: Solubility in water. In kind it is physicochemical.
Data set [2] concerns Calf thymus DNA. Briefly: Binding affinity to calf thymus DNA assessed as change in melting temperature in citric acid/NaOH buffer ayt pH 5 at [compound]/[DNA] ratio of 0.1 by tangent method. Type of data set: nucleic-acid assay. Particulars: Bos taurus.
In data set [3] the test system is Calf thymus DNA. Briefly: Binding affinity to calf thymus DNA assessed as change in melting temperature in citric acid/NaOH buffer ayt pH 5 at [compound]/[DNA] ratio of 0.2 by tangent method. Type of data set: nucleic-acid assay. The conditions noted are these: Bos taurus.
Data set [4] relates to Calf thymus DNA. As to the kind of experiment: Binding affinity to calf thymus DNA assessed as change in melting temperature in citric acid/NaOH buffer ayt pH 5 at [compound]/[DNA] ratio of 0.3 by tangent method. In kind it is nucleic-acid assay. Particulars: Bos taurus.
For a further data set, the system named is HeLa. As to the kind of experiment: Cytotoxicity against human HeLa cells after 72 hrs by MTT assay. In kind it is functional, cell-based. (In general: Tetrazolium dyes change colour on reduction, which living cells bring about.)
The test system of a further data set is MIA PaCa-2. As to the kind of experiment: Cytotoxicity against human MIAPaCa2 cells after 72 hrs by MTT assay. The conditions noted are these: MIA PaCa-2, 72 h. In kind it is functional, cell-based.
A further data set has as its system SW-620. Briefly: Cytotoxicity against human SW620 cells after 72 hrs by MTT assay. In kind it is functional, cell-based. The conditions noted are these: SW-620, 72 h.
In a further data set the test system is MCF7. Briefly: Cytotoxicity against human MCF7 cells after 72 hrs by MTT assay. Type of data set: functional, cell-based. The conditions noted are these: MCF7, 72 h.
The next data set deals with NCI-H460. Briefly: Cytotoxicity against human H460 cells after 72 hrs by MTT assay. Particulars: NCI-H460, 72 h. In kind it is functional, cell-based.
The test system of data set [5] is Calf thymus DNA. As to the kind of experiment: Binding affinity to calf thymus DNA assessed as fluorescence quenching at pH 7 by fluorimetric titration. Type of data set: nucleic-acid assay. The conditions noted are these: Bos taurus.
Data set [6] relates to Calf thymus DNA. As to the kind of experiment: Binding affinity to calf thymus DNA assessed as fluorescence quenching at pH 5 by fluorimetric titration. In kind it is nucleic-acid assay. The conditions noted are these: Bos taurus.

Converted amounts (≈) assume the structure as drawn. Where only a bound is given, the exact number is not on record here.

A word on the solubility: it is the concentration that dissolves in the medium under given conditions. A low value points to a poorly soluble substance. Broadly, the ΔTm is the shift of the melting midpoint relative to a reference. What is called IC50 is the concentration that gives 50% inhibition. Compound `Cc1nc2ccccc2c2ccc(C[C@H](NC(=O)CNC(=O)[C@@H](N)Cc3ccc4c(c3)c(C)nc3ccccc34)C(=O)O)cc12` had a solubility in data set [1] of 1000 µM (≈ 600 µg/mL). The ΔTm with Calf thymus DNA [2] came out at 14.3 °C; in the data set with Calf thymus DNA [3], 16.5 °C; with Calf thymus DNA [4] it was 18.4 °C. Besides, the IC50 in the data set with HeLa, in the data set on MIA PaCa-2, with SW-620, in the data set on MCF7 and with NCI-H460 was over 100 µM each time.
On to `Cc1nc2ccccc2c2ccc(C[C@H](N)C(=O)O)cc12`, for which the concentration in solution in [1] (solubility) was 1000 µM (≈ 280 µg/mL). The ΔTm in the data set with Calf thymus DNA [4] came to 4 °C. In addition, the IC50 with HeLa, in the data set on MIA PaCa-2, in the data set with SW-620, with MCF7 and in the data set with NCI-H460 was over 100 µM each time.
Take `Cc1nc2ccccc2c2ccc(C[C@H](NC(=O)CN)C(=O)O)cc12`: the concentration in solution in [1] (solubility) was 1000 µM (≈ 337 µg/mL). Also, the log Ks turned out to be 4.7 in the data set on Calf thymus DNA [5] and 5.5 in the data set with Calf thymus DNA [6]. Besides, the ΔTm amounted to 6.5 °C with Calf thymus DNA [2], 8.1 °C in the data set with Calf thymus DNA [3] and 11.1 °C in the data set with Calf thymus DNA [4].
As for `Cc1nc2ccccc2c2ccc(C[C@H](NC(=O)[C@@H](N)Cc3ccc4c(c3)c(C)nc3ccccc34)C(=O)O)cc12`, in data set [1], the concentration in solution (solubility) came to 1000 µM (≈ 543 µg/mL). The log Ks in the data set on Calf thymus DNA [6] came to 6.7. The thermal shift (ΔTm) is 8.6 °C in the data set with Calf thymus DNA [2], 11 °C in the data set with Calf thymus DNA [3] and 11.3 °C in the data set on Calf thymus DNA [4].
